EC50 data for eight molecules are collected here from patent US11142527B2, “Dihydropyrimidine compounds and uses thereof in medicine” (SUNSHINE LAKE PHARMA CO., LTD., priority 2017, dated 2021).

The test system of the experiment is HBV. The experiment in a line: Test of anti HBV activity in vitro (viral DNA by qPCR). The format is cell-based. The note with it: Hepatitis B virus; HepG2.2.15 cells, viral DNA in cell culture supernatant by qPCR; read-out: EC50 values of the compound of the invention on viral replication. On the procedure:
Test 1: Test Method of Calculating Anti HBV EC50
HBV Cell Line and Culture Conditions
HepG2.2.15 (SELLS, PNAS, 1987 and SELLS, JV, 1988) chromosomes have an integrated complete HBV genome, and stably express viral RNA and viral protein. HepG2.2.15 cells can secrete mature HBV particles, HBsAg and HBeAg, to medium. HepG2.2.15 cells were cultured in DMEM containing 10% fetal bovine serum, 100 U/mL penicillin, 100 U/mL streptomycin, 1% non essential amino acid, 1 mM sodium pyruvate and 300 μg/mL G418.
Viral particles DNA secreted from HepG2.2.15 cells can be quantified by qPCR, and the effect of the compound on viral replication can be detected.
Test of Anti HBV Activity In Vitro
8000 HepG 2.2.15 cells per well were seeded into a 96-well plate, the plate was cultured at 37° C. and 5% CO2 for 3 days till the cells grew to full wells. Old liquid medium can be removed and replaced with new medium (200 μL) on day 0.
Formulating the compound and treating the cells in the experiment of anti virus: the compound was dissolved in DMSO to a concentration of 30 mM, and then the compound solution was diluted with DMSO to a concentration of 800 μM, and then eight dilutions at 4 fold were performed, the highest concentration is 800 μM. The serial diluted compound was added to the above plate at 1 μL per well, the highest final concentration in the experiment is 4 μM (200 fold dilution). TDF (tenofovir dipiroxil fumarate, Selleck, Cat S1400) has a highest concentration of 4 μM as a positive control. 1 μL of DMSO was added in to the […] at a final concentration of 0.5%, TDF was added in to the […] at a final concentration of 1 μM.
Detection of Viral Genomic DNA by aPCR
Primer: HBV-For-202, […]; HBV-Rev-315, […]. Copies of virus can be calculated using a standard curve plotted by using plasmid containing HBV genome and using SYBR Premix Ex Taq II—Takara DRR081S kit and 1 μL cell culture supernatant as a template. EC50 values of the compound on viral replication were calculated by a four parametric nonlinear regression model using Graphpad Prism 5 software to manage concentration—viral copy number.
(Real-time PCR tracks product formation cycle by cycle.)
The EC50 is the concentration giving half of the maximal effect. For the molecule `COC(=O)C1=C(CN2CCN3C(=O)N(CC#Cc4ccc(C(=O)O)cc4F)C[C@@H]3C2)NC(c2nccs2)=N[C@H]1c1ccc(F)cc1Cl` [Example 4, 4-(3-((S)-7-(((R)-6-(2-chloro-4-fluorophenyl)-5-(methoxycarbonyl)-2-(thiazol-2-yl)-3,6-dihydropyrimidin-4-yl)methyl)-3-oxohexahydroimidazo[1,5-a]pyrazin-2(3H)-yl)prop-1-yn-1-yl)-3-fluorobenzoic acid], the EC50 was found to be 19.8 nM.

`COC(=O)C1=C(CN2CCN3C(=O)N(CC#Cc4ccc(OC)cc4)C[C@@H]3C2)NC(c2nccs2)=N[C@H]1c1ccc(F)cc1Cl` [Example 45, (R)-methyl 4-(2-chloro-4-fluorophenyl)-6-(((S)-2-(3-(4-methoxyphenyl)prop-2-yn-1-yl)-3-oxohexahydroimidazo[1,5-a]pyrazin-7(1H)-yl)methyl)-2-(thiazol-2-yl)-1,4-dihydropyrimidine-5-carboxylate]: the EC50 was found to be 14.4 nM.

`COC(=O)C1=C(CN2CCN3C(=O)N(c4ccc(Oc5ccc(CCC(=O)O)cc5F)cc4F)C[C@@H]3C2)NC(c2nccs2)=N[C@H]1c1ccc(F)cc1Cl` [Example 101, 3-(4-(4-((S)-7-(((R)-6-(2-chloro-4-fluorophenyl)-5-(methoxycarbonyl)-2-(thiazol-2-yl)-3,6-dihydropyrimidin-4-yl)methyl)-3-oxohexahydroimidazo[1,5-a]pyrazin-2(3H)-yl)-3-fluorophenoxy)-3-fluorophenyl)propanoic acid]: the EC50 came out at 14.8 nM. With `COC(=O)C1=C(CN2CCN3C(=O)N(c4ccc(N5CCC(C(=O)O)CC5)cc4)C[C@@H]3C2)NC(c2nccs2)=N[C@H]1c1ccc(F)cc1Cl` [Example 21, 1-(4-((S)-7-(((R)-6-(2-chloro-4-fluorophenyl)-5-(methoxycarbonyl)-2-(thiazol-2-yl)-3,6-dihydropyrimidin-4-yl)methyl)-3-oxohexahydroimidazo[1,5-a]pyrazin-2(3H)-yl)phenyl) piperidine-4-carboxylic acid], the EC50 stood at 5 nM.

On to `COC(=O)C1=C(CN2CCN3C(=O)N(c4ccc(-c5ccc(C(C)(C)C(=O)O)cc5)cc4)C[C@@H]3C2)NC(c2nccs2)=N[C@H]1c1ccc(F)cc1Cl` [Example 18, 2-(4′-((S)-7-(((R)-6-(2-chloro-4-fluorophenyl)-5-(methoxycarbonyl)-2-(thiazol-2-yl)-3,6-dihydropyrimidin-4-yl)methyl)-3-oxohexahydroimidazo[1,5-a]pyrazin-2(3H)-yl)-[1,1′-diphenyl]-4-yl)-2-methyl propionic acid], for which the EC50 was found to be 13 nM. Then `COC(=O)C1=C(CN2CCN3C(=O)N(CC#Cc4ccc(C(=O)O)cc4)C[C@@H]3C2)NC(c2nccs2)=N[C@H]1c1ccc(F)cc1Cl` [Example 1, 4-(3-((S)-7-(((R)-6-(2-chloro-4-fluorophenyl)-5-(methoxycarbonyl)-2-(thiazol-2-yl)-3,6-dihydropyrimidin-4-yl)methyl)-3-oxohexahydroimidazo[1,5-a]pyrazin-2(3H)-yl)prop-1-yn-1-yl)benzoic acid], with 8.45 nM; and `COC(=O)C1=C(CN2CCN3C(=O)N(c4ccc(N5CCOC(CC(=O)O)C5)cc4)C[C@@H]3C2)NC(c2nccs2)=N[C@H]1c1ccc(F)cc1Cl` (stereo partly drawn) [Example 76, 2-(4-(4-((S)-7-(((R)-6-(2-chloro-4-fluorophenyl)-5-(methoxycarbonyl)-2-(thiazol-2-yl)-3,6-dihydropyrimidin-4-yl)methyl)-3-oxohexahydroimidazo[1,5-a]pyrazin-2(3H)-yl)phenyl)morpholin-2-yl)acetic acid], with 5.4 nM. Take `COC(=O)C1=C(CN2CCN3C(=O)N(c4nc(-c5cccc(CCC(=O)O)c5)cs4)C[C@@H]3C2)NC(c2nccs2)=N[C@H]1c1ccc(F)cc1Cl` [Example 140, 3-(3-(2-((S)-7-(((R)-6-(2-chloro-4-fluorophenyl)-5-(methoxycarbonyl)-2-(thiazol-2-yl)-3,6-dihydropyrimidin-4-yl)methyl)-3-oxohexahydroimidazo[1,5-a]pyrazin-2(3H)-yl)thiazol-4-yl)phenyl)propanoic acid]: the EC50 is 18.3 nM.
